The text below walks through data of publication PMC9735595, “Advanced EPI-X4 Derivatives Covalently Bind Human Serum Albumin Resulting in Prolonged Plasma Stability” (International Journal of Molecular Sciences, 2022).

Ends that are not written are not given here. Peptide text beside a SMILES is read from it. * marks the point of attachment. Cam = NC(=O)C*

Data set [1] is described as follows: Functional plasma stability assay (remaining activity in CXCR4 antibody competition after incubation in plasma). Type of data set: in vitro ADME, human. The note with it: 37 °C; for half-life in human plasma, functional assay: 20 µM in 100% pooled human K3 EDTA plasma (6 donors), aliquots serially diluted in cold PBS, 12G5-APC competition on SupT1 cells, 2 h at 4 °C, flow cytometry, activity = IC50(t)/IC50(t=0) x 100, one-phase decay, 3 rounds of plasma incubation. The protocol:
For the functional assay, WSC02 (a) or JM#21 (b) were spiked into human plasma and incubated at 37 °C. At indicated time points, aliquots were taken and serially diluted in cold PBS. […] After 2 h, unbound antibody was removed, and cells were analyzed by flow cytometry. Remaining activity was determined described before. For detection by mass spectrometry, WSC02 (a) or JM#21 (b) were spiked into plasma and incubated at 37 °C. and analyzed in LC-MS/MS. Half-lives were calculated using a one-phase decay model in GraphPad Prism. Curve fits are shown as dashed lines. Data shown are derived from 3 individual rounds of plasma incubation ± SEM.
(§1) SupT1 cells were cultured in RPMI supplemented with 10% FCS, 100 units/mL penicillin, 100 µg/mL streptomycin, 2 mM L-glutamine, and 1 mM HEPES (Gibco). Blood was collected from healthy donors (male and female, average age 28 years) using S-Monovettes K3 EDTA (Sarstedt). Plasma was obtained by centrifugation of whole blood at 2.500× g for 15 min. Plasma of 6 donors was pooled and stored at −80 °C.
Competition of compounds with an APC-labeled antibody specific for ECL2 of CXCR4 (clone 12G5) was performed in SupT1 cells as described. For this, cells (without buffer) were precooled at 4 °C and a serial dilution of compounds in PBS together with a constant concentration of antibody diluted in buffer (PBS with 1% FCS) was added. After 2 h at 4 °C, unbound antibody was removed and cells analyzed in flow cytometry (CytoFLEX, Beckman Coulter). Mean fluorescence signals (MFI) in the presence of PBS only was set 100%. Isotype control was set 0%. Half-maximal inhibitory concentrations (IC50) were calculated in GraphPad Prism by nonlinear regression.
Decrease in CXCR4-binding activity after incubation of compounds in human plasma was determined to calculate functional stability as described (Harms et al. 2020). For this purpose, the peptides were dissolved at a concentration of 20 µM in 100% plasma. The first aliquot (t = 0) was immediately taken and stored at −80 °C. Aliquots were taken at given time points and also stored. To determine CXCR4 binding, all aliquots were thawed together and serially diluted in ice-cold PBS and subsequently, antibody competition was performed as described before. IC50 at t = 0 defined as 100% activity and decrease in activity was calculated by IC50 (t)/IC50 (t = 0) × 100. Half-lives were determined by one-phase decay using GraphPad Prism.
For orientation: Flow cytometry measures light scatter and fluorescence of single cells or particles in a stream.

Data set [2] is described as follows: Half-life determination in plasma by mass spectrometry (LC-MS/MS). As to conditions: 37 °C, one-phase decay; for half-life / half-life at 7 µM: both sexes, pooled K3 EDTA plasma, 3 rounds; for half-life: human plasma, LC-MS/MS of intact peptide normalized to t = 0, sample treatment for the variants not stated, read-out: half-life in human plasma, mass spectrometry, peptides without a reactive Cys-thiol; for half-life in human plasma, mass spectrometry, samples diluted with 0.1% TFA / half-life at 7 µM: 7 µM in human plasma; for half-life in human plasma, mass spectrometry, samples diluted with 0.1% TFA: aliquots diluted in 0.1% TFA only, LC-MS/MS peak area of intact free peptide, triplicate; for half-life at 7 µM: TFA samples ten-fold diluted with 50 mM NH4HCO3 + 10 mM DTT + 6M GuHCl before LC-MS/MS, read-out: half-life in human plasma, mass spectrometry, after GuHCl + DTT ("real" half-live). Type of data set: in vitro ADME, human. The procedure: A 50 µL-aliquot of human plasma was spiked with 7 µM JM#21 or WSC02. The mixture was stirred for a few seconds and incubated at 37 °C. Five microliter aliquots were separated after 0, 5, 10, 20, 30, 45, 60, 90, and 120 min. Aliquots were immediately diluted with 1.5 mL 0.1% TFA and stored at −80 °C. The experiment was performed in triplicate. Additionally, for the measurement of denatured samples prior to MS measurement, all of the samples stored in 0.1% TFA were ten-fold diluted with 50 mM NH4HCO3 + 10 mM DTT + 6M GuHCl. A 15 uL-aliquot of every sample was used for mass spectrometry analysis as follows: samples were measured using an Orbitrap Elite Hybrid mass spectrometry system (Thermo Fisher Scientific, Bremen, Germany) online coupled to an U3000 RSLCnano (Thermo Fisher Scientific, Idstein, Germany) employing an Acclaim PepMap analytical column (75 μm × 500 mm, 2 μm, 100 Å, Thermo Fisher Scientific, Bremen, Germany) at a flow rate of 250 nL/min. Using a C18 μ-precolumn (0.3 mm × 5 mm, PepMap, Dionex LC Packings, Thermo Fisher Scientific, Bremen, Germany), samples were preconcentrated and washed with 0.1% TFA for 5 min at a flow rate of 30 μL/min. The subsequent separation was carried out using a binary solvent gradient consisting of solvent A (0.1% FA) and solvent B (86% ACN, 0.1% FA). The column was initially equilibrated in 5% B. In the first elution step, the percentage of B was raised from 5 to 15% in 5 min, followed by an increase from 15 to 40% B in 30 min. The column was washed with 95% B for 4 min and re-equilibrated with 5% B for 19 min. The mass spectrometer was equipped with a nanoelectrospray ion source and distal-coated SilicaTips (FS360-20-10-D, New Objective, Woburn, MA, USA). The instrument was externally calibrated using standard compounds (LTQ Velos ESI Positive Ion Calibration Solution, Pierce, Thermo Scientific, Rockford, IL, USA). The system was operated using the following parameters: spray voltage, 1.5 kV; capillary temperature, 250 °C; S-lens RF level, 68.9%. XCalibur 2.2 SP1.48 (Thermo Fisher Scientific, Bremen, Germany) was used for data-dependent tandem mass spectrometry (MS/MS) analyses. Full scans ranging from m/z 370 to 1700 were acquired in the Orbitrap at a resolution of 30,000 (at m/z 400) with automatic gain control (AGC) enabled and set to 106 ions and a maximum fill time of 500 ms. Up to 20 multiply-charged peptide ions were selected from each survey scan for collision-induced fragmentation (CID) in the linear ion trap using AGC set to 10,000 ions and a maximum fill time of 100 ms. For MS/MS fragmentation, normalized collision energy of 35% with an activation q of 0.25 and an activation time of 30 ms was used.
For visualization in the XCalibur Qual Browser 2.0 (Thermo Fisher Scientific, Bremen, Germany), extracted ion xhromatograms (XICs) of the most intense isotope (±20 ppm), as theoretically predicted, at z = 3 or z = 4 were calculated. Using default parameters within the QualBrowser, peak areas were calculated and exported. Half-lives were determined by fitting the data (peak area vs. time) to a one-phase exponential decay model using GraphPad Prism 8.4.3 (GraphPad Prism Software LLC, San Diego, CA, USA).
(§2) The influence of several reagents on peptide detection was tested with aliquots separated (peptide + plasma, 300-fold diluted in 0.1%TFA) at t = 10 min. The aliquots were analyzed by LC-MS/MS, as previously described, after 10-fold dilution in 0.1% TFA, 6M GuHCl, 50 mM NH4HCO3 + 10 mM DTT, and 50 mM NH4HCO3 + 10 mM DTT + 6M GuHCl, respectively.
as §1

In data set [3] the target is T1, human serum albumin (HSA) (Homo sapiens, UniProt P02768).
T1 construct: from tissue; host or cells: human plasma
Kind of data set: Interaction with plasma components: size-exclusion fractionation and tryptic digestion of spiked plasma, LC-MS/MS. Type of data set: in vitro ADME. The note with it: plasma spiked with peptide, 37 °C, 10 min; SEC fractions treated with DTT + GuHCl; tryptic digest LC-MSMS. The protocol: as §2
A 5 µL aliquot of the peptides in plasma, after incubation at 37 °C for 10 min, was injected into a size-exclusion column Yarra SEC-2000 (Phenomenex, CA, USA) of dimensions 7.8 × 300 mm, 3 µm particle size. The separation was done at a flow rate of 0.5 mL/min using a buffer composed of 25 mM NaH2PO4 + 25 mM Na2HPO4 + 250 mM KCl (pH 6.65). Fractions were collected every one minute, and then analyzed by mass spectrometry in denaturing conditions (1/10 in 50 mM NH4HCO3 + 10 mM DTT + 6M GuHCl) as previously described.
A 5 µL aliquot of plasma spiked with WSC02 or JM#21 was mixed with trypsin (50:1) and incubated at 37 degrees for 16 h. Half of the digested sample was reduced and carbamidomethylated, as described above. The digested samples, both unmodified and carbamidomethylated, were analyzed by mass spectrometry, as previously described in this section.

The next data set concerns CXCR4. As to conditions: cited from earlier work. From the text:
In addition, both peptides contain a cystein ...

The mark [4] stands for this setting: human plasma, 30 min, antibody competition read-out, 3 rounds.
[5] abbreviates: human plasma, antibody competition read-out, 3 rounds.

T1 sequence (P02768 25-609): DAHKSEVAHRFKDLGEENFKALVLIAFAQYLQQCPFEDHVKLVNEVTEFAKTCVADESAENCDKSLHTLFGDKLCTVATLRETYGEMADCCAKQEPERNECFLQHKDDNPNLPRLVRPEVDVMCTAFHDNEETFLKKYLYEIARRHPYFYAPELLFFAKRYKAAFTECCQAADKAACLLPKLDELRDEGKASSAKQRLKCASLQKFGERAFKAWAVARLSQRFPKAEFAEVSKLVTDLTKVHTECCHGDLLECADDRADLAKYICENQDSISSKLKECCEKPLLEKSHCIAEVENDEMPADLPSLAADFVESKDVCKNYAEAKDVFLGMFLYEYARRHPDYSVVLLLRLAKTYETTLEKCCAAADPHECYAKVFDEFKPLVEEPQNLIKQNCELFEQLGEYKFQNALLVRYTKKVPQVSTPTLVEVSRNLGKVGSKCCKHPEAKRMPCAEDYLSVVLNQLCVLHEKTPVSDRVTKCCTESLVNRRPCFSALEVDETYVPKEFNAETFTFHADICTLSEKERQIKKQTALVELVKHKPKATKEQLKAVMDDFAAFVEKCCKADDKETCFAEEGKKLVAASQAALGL

For orientation: half-life means how long it takes for the measured level to halve. IVRWSKKVPSVS [WSC02 C10S]: the “half-life in human plasma, functional assay” value (from here on “half-life … functional assay”) in data set [1] came out at 7 min. Moreover, in data set [1] (setting [4]), the “activity reduced by (loss of activity) after 30 min in plasma” value is reported as 92%. Also, the half-life in data set [2] is 4 min.

As for ILRWSRKLPSVS [JM#21 C10S], the “half-life … functional assay” value in data set [1] turned out to be 4 min. Also, in data set [1] (setting [5]), the “activity decreased by (loss of activity) after 15 min in plasma” value (shortened to “activity decreased by (loss of activity)”) is 91%. In addition, in data set [2], the half-life turned out to be 4 min.

As for `CC[C@H](C)[C@H](N)C(=O)N[C@@H](CC(C)C)C(=O)N[C@@H](CCCNC(=N)N)C(=O)N[C@@H](Cc1c[nH]c2ccccc12)C(=O)N[C@@H](CO)C(=O)N[C@@H](CCCNC(=N)N)C(=O)N[C@@H](CCCCN)C(=O)N[C@@H](CC(C)C)C(=O)N1CCC[C@H]1C(=O)N[C@@H](CS)C(=O)N[C@H](C(=O)N[C@@H](CO)C(=O)O)C(C)C` [EPI-X4 JM#21], the “half-life … functional assay” value is listed as 6 min in data set [1] and approximately 6 min in data set [1] (listed as JM#21). In addition, the “activity decreased by (loss of activity)” value in data set [1] (setting [5]) is listed as 69%. In data set [1] (setting [4]), the “remaining activity after 30 min in plasma” value stood at 10%. Moreover, the “half-life in human plasma, mass spectrometry, samples diluted with 0.1% TFA” value in data set [2] came out at 1.7 min. Moreover, the half-life at 7 µM in data set [2] was 5 min. Besides, in data set [3], the “interaction with human serum albumin in plasma (in words)” value was “forming a disulfide bridge with a free thiol group (Cys34) on HSA”. The “higher antagonistic activity as compared with EPI-X4” value in the data set with CXCR4 is on record as approximately 300 fold.

Consider `CC[C@H](C)[C@H](N)C(=O)N[C@@H](CC(C)C)C(=O)N[C@@H](CCCNC(=N)N)C(=O)N[C@@H](Cc1c[nH]c2ccccc12)C(=O)N[C@@H](CO)C(=O)N[C@@H](CCCNC(=N)N)C(=O)N[C@@H](CCCCN)C(=O)N[C@@H](CC(C)C)C(=O)N1CCC[C@H]1C(=O)N[C@@H](CSCC(N)=O)C(=O)N[C@H](C(=O)N[C@@H](CO)C(=O)O)C(C)C` [JM#21 Cdm], for which the “half-life … functional assay” value in data set [1] came to 3 min. Besides, the “activity decreased by (loss of activity)” value in data set [1] (setting [5]) is reported as 95%. For the same compound, the half-life in data set [2] worked out at 3 min.

As for IVRWSKKVPCVS [EPI-X4 WSC02], in data set [1], the “half-life … functional assay” value is 9 min. Also, in data set [1] (listed as WSC02), the “half-life … functional assay” value was “about 9 min”. Also, in data set [1] (human plasma, 60 min, antibody competition read-out, 3 rounds), the “remaining activity after 60 min in plasma” value was 20%. For the same compound, in data set [2], the “half-life in human plasma, mass spectrometry, samples diluted with 0.1% TFA” value was determined as 0.7 min and the half-life at 7 µM amounted to 6 min. For the same compound, the “interaction with human serum albumin in plasma (in words)” value in data set [3] is “forming a disulfide bridge with a free thiol group (Cys34) on HSA”.

In the case of `CC[C@H](C)[C@H](N)C(=O)N[C@H](C(=O)N[C@@H](CCCNC(=N)N)C(=O)N[C@@H](Cc1c[nH]c2ccccc12)C(=O)N[C@@H](CO)C(=O)N[C@@H](CCCCN)C(=O)N[C@@H](CCCCN)C(=O)N[C@H](C(=O)N1CCC[C@H]1C(=O)N[C@@H](CSCC(N)=O)C(=O)N[C@H](C(=O)N[C@@H](CO)C(=O)O)C(C)C)C(C)C)C(C)C` [WSC02 Cdm] (H-IVRWSKKVPC(Cam)VS-OH), the “half-life … functional assay” value in data set [1] is given as 6 min. Moreover, in data set [1] (setting [4]), the “activity reduced by (loss of activity) after 30 min in plasma” value came out at 93%. The half-life in data set [2] was 5 min.
